The values below are quoted from earlier work in US20250281528A1, “GRAPHENE OXIDE-CATIONIC SILVER NANOCOMPOSITES AND THEIR USE AS BROAD-SPECTRUM ANTIMICROBIAL AGENTS” (priority 2020, published 2025).

Some test systems named below: Streptococcus pyogenes; Salmonella typhi; Vibrio cholerae; Candida albicans.
What all share (settings): literature values, refs in Table 6 footnotes

`O=[N+]([O-])[O-].[Ag+]` [AgNO3, Silver Nitrate]: the MIC in the series on Streptococcus pyogenes was 80 ^c μg/mL; with Salmonella typhi, 110 ^c μg/mL; in the series with Vibrio cholerae, 70 ^c μg/mL; in the series on Candida albicans it was 4.9 ^f μg/mL.
